Test results from patent US10675333B2, “Infusion pump” (priority 2016, dated 2020).

System: subject with a body weight of 51.5 kg
Test: GnRH stimulation test (LH and FSH levels)
Assay type: in vivo, human
Method: In the test, a subject with a body weight of 51.5 kg was included, and their luteinizing hormone (LH) and follicle-stimulating hormone (FSH) levels were measured as test indicators both in mIU/mL.

GnRH: stimulating agent of the GnRH stimulation test; not further described (QHWSYGLRPG; Gonadoliberin-1; UniProt P01148 24-33, looked up)
FSH (0 min (reference time)): 3.49 mIU/mL | LH (0 min (reference time)): 0.99 mIU/mL | FSH (25 min): 4.47 mIU/mL | LH (25 min): 3.2 mIU/mL | FSH (45 min): 5.44 mIU/mL | LH (45 min): 3.76 mIU/mL | FSH (90 min): 6.21 mIU/mL | LH (90 min): 3.76 mIU/mL | FSH (180 min): 6.12 mIU/mL | LH (180 min): 2.46 mIU/mL | FSH maximum level (maximum stimulated level): 6.21 mIU/mL | LH maximum level (maximum stimulated level): 3.76 mIU/mL
